# According to patent US20260325658A1 (priority 2022, published 2026):
# “Also recorded” adds a separate entry of the source.
# Tests used:
# [1] = system: dopamine receptors; details: cited from earlier work
# [2] = cited from earlier work
# [3] = molecular target: human delta (DOP) receptor (Homo sapiens, UniProt P41143); assay type: cell-based
# [4] = molecular target: Opiate μ (Homo sapiens, UniProt P35372); assay type: binding
# [5] = molecular target: D2L human dopamine GPCR (Homo sapiens, UniProt P14416); assay type: cell-based
# Sequence of D2L human dopamine GPCR (P14416 whole entry): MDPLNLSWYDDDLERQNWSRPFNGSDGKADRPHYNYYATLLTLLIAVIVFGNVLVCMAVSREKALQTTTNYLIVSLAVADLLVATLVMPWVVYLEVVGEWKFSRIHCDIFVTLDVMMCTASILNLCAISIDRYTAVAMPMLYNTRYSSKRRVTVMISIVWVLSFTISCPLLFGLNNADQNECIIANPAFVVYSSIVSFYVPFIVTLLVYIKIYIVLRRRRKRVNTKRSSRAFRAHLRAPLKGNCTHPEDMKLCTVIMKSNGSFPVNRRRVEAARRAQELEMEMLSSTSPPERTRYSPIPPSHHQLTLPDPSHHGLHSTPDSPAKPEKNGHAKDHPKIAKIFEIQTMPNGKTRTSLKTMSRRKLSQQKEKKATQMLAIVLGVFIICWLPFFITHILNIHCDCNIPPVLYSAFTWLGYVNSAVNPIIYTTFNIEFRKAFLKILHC
# [6] = system: opioid addiction syndrome; details: in vivo; cited from earlier work
# [7] = system: patients; details: human, in vivo; cited from earlier work
# [8] = system: Mecp2-null mice; details: mouse, in vivo; cited from earlier work
# [9] = molecular target: Sigma 2 (Homo sapiens, UniProt Q5BJF2); details: cited from earlier work
# Sequence of Sigma 2 (Q5BJF2 whole entry): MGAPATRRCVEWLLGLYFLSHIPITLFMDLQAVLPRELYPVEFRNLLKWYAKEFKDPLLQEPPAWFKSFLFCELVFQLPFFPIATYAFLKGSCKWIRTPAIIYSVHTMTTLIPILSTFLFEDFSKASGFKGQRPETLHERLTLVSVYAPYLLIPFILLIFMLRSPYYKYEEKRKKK
# [10] = in vivo; cited from earlier work
# [11] = system: adult patients; details: human, in vivo; cited from earlier work
# Sequence of Opiate μ (P35372 whole entry): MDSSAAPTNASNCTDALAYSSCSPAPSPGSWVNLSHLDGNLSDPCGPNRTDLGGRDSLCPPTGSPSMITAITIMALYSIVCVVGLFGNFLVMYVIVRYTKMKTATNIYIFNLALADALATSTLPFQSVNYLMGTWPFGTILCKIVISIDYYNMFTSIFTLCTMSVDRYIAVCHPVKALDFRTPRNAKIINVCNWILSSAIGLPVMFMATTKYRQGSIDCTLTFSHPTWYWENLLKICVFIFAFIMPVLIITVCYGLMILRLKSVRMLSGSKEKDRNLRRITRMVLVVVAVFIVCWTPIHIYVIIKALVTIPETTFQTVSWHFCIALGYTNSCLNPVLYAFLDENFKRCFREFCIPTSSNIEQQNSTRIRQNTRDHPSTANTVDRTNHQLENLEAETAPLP
# Sequence of human delta (DOP) receptor (P41143 whole entry): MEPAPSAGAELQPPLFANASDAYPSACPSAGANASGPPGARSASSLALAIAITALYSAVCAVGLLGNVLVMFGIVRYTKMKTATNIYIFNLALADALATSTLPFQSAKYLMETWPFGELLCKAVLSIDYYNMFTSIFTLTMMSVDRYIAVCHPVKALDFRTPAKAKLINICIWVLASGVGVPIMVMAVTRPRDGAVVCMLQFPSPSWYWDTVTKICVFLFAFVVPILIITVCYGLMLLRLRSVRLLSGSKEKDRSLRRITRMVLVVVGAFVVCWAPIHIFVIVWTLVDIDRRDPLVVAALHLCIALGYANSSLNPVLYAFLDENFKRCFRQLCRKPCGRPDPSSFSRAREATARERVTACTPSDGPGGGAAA
smiles,measurement,setting,value
"NC1(c2ccccc2Cl)CCCCC1=O (racemic) [NorKetamine, (R,S)-Norketamine]",affinity for / effect on dopamine receptors,[1],do not appear to have a direct effect on dopamine receptors
same,Water Solubility of Free drug,[2],178 µg/mL
same,Opiate delta1R (antagonist),[3],Not active
same,Opiate μ,[4],Not active
same,binding to Opioid u receptors,[4],does not bind Opioid u receptors
same,DRD2L Agonist,[5],Not active
same,ability to bind dopamine 2 receptors,[5],does not appear to bind Dopamine 2 receptors
"NCCc1c[nH]c2ccc(O)cc12 [5HT, 5-hydroxy tryptamine]",Water Solubility of Free drug,[2],2500 µg/mL
CC[C@H]1C[C@H]2C[C@H]3c4[nH]c5ccc(OC)cc5c4CCN(C2)[C@@H]13 [Ibogaine],drug craving and depressive symptoms,[6],decreases drug craving and improves depressive symptoms
"CNC1(c2ccccc2Cl)CCCCC1=O (stereo not drawn) [Ketamine, 2-(2-chlorophenyl)-2-(methylamino)-cyclohexanone]",affinity for / effect on dopamine receptors,[1],not shown any affinity for dopamine 2 receptors; also recorded: do not appear to have a direct effect on dopamine receptors
same,patients who develop an emergence phenomenon,[7],More than half the patients
same,efficacy by start of treatment,[8],Treatment from day 30 was not effective; also recorded: treatment from day 15 showed some efficacy
same,improved survival,[8],50%
same,survival after treatment,[8],50%
same,concentration at which sigma2 receptors are bound,[9],mM concentrations
same,half-life,[10],approximately 45 minutes
"c1ccc(C2(N3CCCCC3)CCCCC2)cc1 [PCP, 1-(1-phencyclohexyl) piperidine]",adult patients presenting with the classic toxidrome of PCP intoxication,[11],Over 50%
NCCc1c[nH]c2ccccc12 [Tryptamine],Water Solubility of Free drug,[2],1340 µg/mL
